# Publication PMC12040169 (PLOS Biology, 2025)
# Values joined by “and” are separate entries in the source; they are usually repeats but may differ in a detail not shown here. Equal values may be shown once.
# Columns and labels:
# [1] = test system: HeLa; conditions: bulk resorufin, single well, 28.5 h, 10 µM, Bulk resorufin fluorescence
# [2] = in vitro; conditions: human, hela cells, % viability
# [3] = test system: T1, C. trachomatis L2/434/Bu expressing GFP (CTL2-GFP); assay: microbe, parasite or virus in culture; set-up: C. trachomatis total inclusion area by high-content imaging, normalised to DMSO; conditions: Chlamydia trachomatis, HeLa, 28.5 h; total inclusion area; read-out: % of control remaining
# T1 construct: L2/434/Bu GFP intracellular growth in HeLa cells
# Method in brief: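 Screening measures GFP fluorescence from the reporter strain and resorufin fluorescence for host viability, with Hoechst-based imaging of fixed cells adding inclusion area, inclusion number and nuclei count per well.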
# [4] = test system: T2, CTL2-GFP (C. trachomatis L2/434/Bu, GFP-expressing); assay: microbe, parasite or virus in culture; set-up: Intracellular C. trachomatis growth in HeLa cells, bulk GFP fluorescence relative to DMSO; conditions: Chlamydia trachomatis, HeLa, 28.5 h; bulk GFP, mean of 2; read-out: % of control remaining
# T2 construct: L2/434/Bu, GFP-expressing
# Method: MICs were calculated as described above.
# [5] = in vitro; set-up: Viability of infected HeLa host cells, resazurin conversion, bulk resorufin fluorescence relative to DMSO; conditions: human, hela cells; bulk resorufin, mean of 2
smiles,measurement,setting,value
Cc1ccc(S(=O)(=O)Nc2ccsc2C(=O)N2CCOCC2)cc1 [CBK004570],% viability,[1],107%
same,"viability at 28.5 h, 10 µM",[2],99.9%
O=C(CC1SC(NC2CC3C=CC2C3)=NC1=O)Nc1ccccc1Cl (stereo not shown) [CBK005795],% viability,[1],109% and 72.5%
COc1ccc(-c2nc(SCc3ccccc3)[nH]c(=O)c2C#N)cc1 [CBK007169],% viability,[1],107% and 84.8%
CNc1cc(NS(=O)(=O)c2ccc(N)cc2)nc(NC)n1 [CBK011865],% viability,[1],93%
O=C(O)CCc1nn2c(-c3ccccc3)c(-c3ccccc3)nc2[nH]c1=O [CBK013564],% viability,[1],94.1%
same,"viability at 28.5 h, 10 µM",[2],86.5%
c1ccc(-c2csc3ncnc(NCc4ccco4)c23)cc1 [CBK017506],% viability,[1],84.6%
same,"viability at 28.5 h, 10 µM",[2],91.1%
O=S(=O)(/C=C/c1ccncc1)NCc1ccc2c(c1)OCO2 [CBK018566],% viability,[1],92.8%
same,"viability at 28.5 h, 10 µM",[2],91.3%
CCc1cc(CN(CC)CC)n[nH]1 [CBK018654],% viability,[1],94.5%
same,"viability at 28.5 h, 10 µM",[2],114%
CCn1c(C)nc2cc(C(=O)N3N=CCC3(O)C(F)(F)F)ccc21 (stereo not shown) [CBK019301],% viability,[1],108%
same,"viability at 28.5 h, 10 µM",[2],105%
Oc1ccccc1-c1cc(-c2cc3ccccc3o2)no1 [CBK019513],% viability,[1],117%
same,"viability at 28.5 h, 10 µM",[2],113%
COC(=O)c1ccccc1OC[C@@H]1CN(C(=O)C(C)(C)N)C[C@H]1c1cc2ccccc2o1 [CBK022525T],% viability,[1],92.2%
same,"viability at 28.5 h, 10 µM",[2],106%
CC(NC(=O)N(Cc1ccccc1C(F)(F)F)CC(C)(C)CN)c1ccccc1 (stereo not shown) [CBK026834C],% viability,[1],118% and 97.8%
O=C(O)CCC(=O)Nc1ccc(Br)cn1 [CBK056920],% viability,[1],89.9% and 110%
Nc1cc2cccnc2c(-c2cc(F)cc(F)c2)n1 [CBK061908],% viability,[1],80.4% and 85.8% and 103%
O=C1NCCN1CCNS(=O)(=O)c1csc2ccccc12 [CBK062602],% viability,[1],117% and 90%
CN(C(=O)CC1SC(NCC2CCCCC2)=NC1=O)c1ccccc1 (stereo not shown) [CBK067371],% viability,[1],87.9% and 110%
COC(=O)Cn1nnc(-c2ccc(C)cc2)n1 [CBK068195],% viability,[1],123% and 93.2%
CC(C)C(=O)Nc1cc2cccnc2c(-c2cccc(C(F)(F)F)c2)n1 [CBK081266],% viability,[1],125% and 100%
COc1ccc(C(C)C)cc1-c1cnc2ncccc2c1N [CBK083686],% viability,[1],108% and 81.3%
CCOC(=O)CN1CCC(Oc2nccnc2OCCN2C(=O)CCC2=O)CC1 [CBK084348],% viability,[1],120% and 80%
c1ccc(CN2CCC(Oc3cncc(OCCN4CCOCC4)n3)C2)cc1 (stereo not shown) [CBK084478],% viability,[1],107% and 84%
O=C(Nc1cccnc1)c1cnc2cc(C(F)(F)F)ccc2c1O [CBK107474T],% viability,[1],88%
O=C(Nc1cc(-c2ccncc2)c[nH]c1=O)c1ccc(Cl)c(Cl)c1 [CBK115868],% viability,[1],94.1% and 119%
COc1cc2c(cc1OC)CN(C(=O)c1ccc3occc3c1)CC2 [CBK122746],% viability,[1],66.2% and 36.8%
O=C(c1cccc(C(F)(F)F)c1)N1CCCC2(CCN(C(=O)c3ccoc3)C2)C1 (stereo not shown) [CBK131616],% viability,[1],116% and 88%
Cc1onc(-c2ccccc2)c1CNC(=O)C1COc2ccccc2O1 (stereo not shown) [CBK144086],% viability,[1],104% and 80.3%
O=c1cc(O)c2ccccc2n1Cc1ccccc1 [CBK218877],% viability,[1],107% and 84.4%
CC(Oc1ccccc1)C(=O)Nc1ccccc1C(=O)O (stereo not shown) [CBK262854],% viability,[1],109% and 87%
CCOC(=O)c1cnc2c(Cl)cccc2c1NCCN1CCOCC1 [CBK263919],% viability,[1],88.1% and 109%
O=C(CSc1nc(O)c(Cc2ccccc2)c(=O)[nH]1)Nc1ccc([N+](=O)[O-])cc1 [CBK265887],% viability,[1],88% and 113%
N=c1c2c(-c3ccccc3)c(-c3ccccc3)n(Cc3ccccc3)c2ncn1CCN1CCOCC1 [CBK268537],activity at 1 µM,[3],119%
same,activity at 5 µM,[3],66.8%
same,activity at 10 µM,[3],34.6%
same,"viability at 28.5 h, 10 µM",[2],92%
same,activity at 1 µM,[4],123%
same,activity at 5 µM,[4],83%
same,activity at 10 µM,[4],70.7%
same,"viability at 28.5 h, 1 µM",[5],94.8%
same,"viability at 28.5 h, 5 µM",[5],97.8%
same,"viability at 28.5 h, 10 µM",[5],93.4%
Cn1cc(C(=O)N2CCc3[nH]c4ccccc4c3C2)cn1 [CBK281875],% viability,[1],104% and 83.7%
CC[C@@H](Cn1nc(-c2cccs2)ccc1=O)NC(=O)C1CC1 [CBK282309],% viability,[1],80.2% and 102%
C=CCNC(=O)[C@H]1C=CCN1C(=O)Nc1ccc(F)cc1 [CBK282318],% viability,[1],82.7% and 110%
CC(C)[C@@H](N)Cn1nc(-c2ccc(F)c(F)c2)ccc1=O [CBK282429],% viability,[1],83% and 112%
COc1ccc(CN2C(=O)[C@H]3CCCN3C(=O)c3ccccc32)cc1 [CBK282851],% viability,[1],87.8% and 109%
C[C@H]1CN2C[C@H](O)CC2CN1Cc1ccc(C(F)(F)F)cc1 (stereo partly shown) [CBK285147],% viability,[1],113% and 89.6%
C[C@H]1CN2C[C@H](O)CC2CN1Cc1ccc(-c2ccccc2Cl)o1 (stereo partly shown) [CBK285418],% viability,[1],109% and 85.9%
CCC(c1ccc(F)cc1)N(C)C(=O)Cn1cc(C(=O)NC2CCCCC2)ccc1=O (stereo not shown) [CBK286106],activity at 1 µM,[3],114%
same,activity at 5 µM,[3],27.8%
same,activity at 10 µM,[3],2.51%
same,"viability at 28.5 h, 10 µM",[2],89.8%
same,activity at 1 µM,[4],128%
same,activity at 5 µM,[4],21.7%
same,activity at 10 µM,[4],7.58%
same,"viability at 28.5 h, 1 µM",[5],89.5%
same,"viability at 28.5 h, 5 µM",[5],95.3%
same,"viability at 28.5 h, 10 µM",[5],87.5%
CN(C)c1ncc(-c2cccc(Cl)c2)c(C2CCCN2C(=O)CC2CCCC2)n1 (stereo not shown) [CBK286253],activity at 1 µM,[3],105%
same,activity at 5 µM,[3],82.7%
same,activity at 10 µM,[3],44.1%
same,"viability at 28.5 h, 10 µM",[2],120%
same,activity at 1 µM,[4],135%
same,activity at 5 µM,[4],91%
same,activity at 10 µM,[4],43.9%
same,"viability at 28.5 h, 1 µM",[5],97.3%
same,"viability at 28.5 h, 5 µM",[5],106%
same,"viability at 28.5 h, 10 µM",[5],110%
O=C(O)CC1C(=O)NC(=O)N1CCc1ccccc1 (stereo not shown) [CBK287254],% viability,[1],111% and 85.3%
Cc1ccc2sc(NC(=O)c3ccc(N4C(=O)CCC4=O)cc3)nc2c1C [CBK287587],% viability,[1],84.7% and 106%
COc1ccc(Nc2nccc(-c3cccnc3)n2)cc1 [CBK288073],% viability,[1],70.2% and 104%
O=c1c2cnc3ccnn3c2ccn1C1CCCC1 [CBK288074],activity at 1 µM,[3],65.5%
same,activity at 5 µM,[3],60.4%
same,activity at 10 µM,[3],4.02%
same,"viability at 28.5 h, 10 µM",[2],107%
same,activity at 1 µM,[4],109%
same,activity at 5 µM,[4],72.3%
same,activity at 10 µM,[4],2.35%
same,"viability at 28.5 h, 1 µM",[5],103%
same,"viability at 28.5 h, 5 µM",[5],106%
same,"viability at 28.5 h, 10 µM",[5],109%
CC(=O)c1c(C)nc(-c2ccc(Cl)c(Cl)c2)n1O [CBK288525],% viability,[1],116% and 89.2%
COCC(=O)N[C@H]1C[C@H]2C(=O)Nc3ccc(/C=C/c4ccccc4)cc3C(=O)N2C1 [CBK289366],activity at 1 µM,[3],105%
same,activity at 5 µM,[3],11.7%
same,activity at 10 µM,[3],1.71%
same,"viability at 28.5 h, 10 µM",[2],90.2%
same,activity at 1 µM,[4],87.5%
same,activity at 5 µM,[4],12%
same,activity at 10 µM,[4],2.8%
same,"viability at 28.5 h, 1 µM",[5],93.1%
same,"viability at 28.5 h, 5 µM",[5],96.4%
same,"viability at 28.5 h, 10 µM",[5],98.1%
O=C1CNC(=O)C2(C/C=C/C[C@H]3COCC[C@H]3N1)CCNCC2 [CBK292151],% viability,[1],82.1% and 104%
Cc1csc(SC(C)C(=O)N2CCc3ccccc32)n1 (stereo not shown) [CBK305909],activity at 1 µM,[3],112%
same,activity at 5 µM,[3],49.8%
same,activity at 10 µM,[3],42.5%
same,"viability at 28.5 h, 10 µM",[2],98.8%
same,activity at 1 µM,[4],143%
same,activity at 5 µM,[4],149%
same,activity at 10 µM,[4],132%
same,"viability at 28.5 h, 1 µM",[5],94.1%
same,"viability at 28.5 h, 5 µM",[5],91.9%
same,"viability at 28.5 h, 10 µM",[5],89.5%
COc1cc2c(cc1CNC(=O)c1cn(CCN)nn1)CCC2 [CBK306886],activity at 1 µM,[3],176%
same,activity at 5 µM,[3],112%
same,activity at 10 µM,[3],45.1%
same,"viability at 28.5 h, 10 µM",[2],84.7%
same,activity at 1 µM,[4],167%
same,activity at 5 µM,[4],109%
same,activity at 10 µM,[4],35.5%
same,"viability at 28.5 h, 1 µM",[5],97.3%
same,"viability at 28.5 h, 5 µM",[5],96.7%
same,"viability at 28.5 h, 10 µM",[5],92.4%
Cn1cc(C(NC(=O)c2nc(N)nc3c2CCCC3)[C@H]2C[C@@H](O)C2)cn1 (stereo partly shown) [CBK307535],% viability,[1],92.2% and 114%
